In patent US8178506B2, “Oligomeric compounds and compositions for use in modulation of small non-coding RNAs” (Regulus Therapeutics Inc., priority 2003, dated 2012):
In the oligonucleotide strings, read from the 5' end, every base follows the letter of its sugar. An asterisk marks phosphorothioate; unmarked linkages are phosphodiester. Other units and linkages are bracketed, terminal groups are in braces. A string of capitals states the bases alone. e = 2'-O-(2-methoxyethyl) (MOE); [5mC] = 5-methylcytosine; d = 2'-deoxy (DNA)

Test system: T47D cells
Assay: Caspase-3 activity assay (apoptosis) in T47D cells
Settings: for Fold Increase over UTC (caspase-3 activity, apoptosis): T47D cells, 200 nM oligomeric compound, 48 hours, experiment of Table 10; for apoptosis in T47D cells: caspase assay, 200 nM, conclusion from Tables 9-12

328696 (e[5mC]*eT*e[5mC]*eT*eA*dG*d[5mC]*dT*d[5mC]*d[5mC]*d[5mC]*dT*d[5mC]*dA*d[5mC]*e[5mC]*eA*eG*eT*eG; antisense) [compound 328696]
Fold Increase over UTC (caspase-3 activity, apoptosis): 1.5 fold

328700 (eA*eG*e[5mC]*e[5mC]*eA*dG*dT*dG*dT*dG*dT*dA*dA*dA*dA*eT*eG*eA*eG*eA; antisense) [compound 328700]
Fold Increase over UTC (caspase-3 activity, apoptosis): 0.8 fold

AAAAATAATCTCTGCACAGG (antisense; same sequence listed as MOE 5-10-5 gapmer and as uniform MOE, further chemistry not given here) [ISIS 328657]
apoptosis in T47D cells: prevent or have a protective effect from apoptosis

AATCCATTGAAGAGGCGATT (antisense; same sequence listed as MOE 5-10-5 gapmer and as uniform MOE, further chemistry not given here) [ISIS 328650]
apoptosis in T47D cells: prevent or have a protective effect from apoptosis

ACTGATTCAAGAGCTTTGTA (antisense; same sequence listed as MOE 5-10-5 gapmer and as uniform MOE, further chemistry not given here) [ISIS 328648]
apoptosis in T47D cells: induce apoptosis

AGAATGAGTTGACATACCAA (antisense; same sequence listed as MOE 5-10-5 gapmer and as uniform MOE, further chemistry not given here) [ISIS 328658]
apoptosis in T47D cells: induce apoptosis

AGCCAGTGTGTAAAATGAGA (2'-MOE gapmer, phosphorothioate, further chemistry not given here) [ISIS 328700]
apoptosis in T47D cells: prevent or have a protective effect from apoptosis

CAAACGGTAAGATTTGCAGA (antisense; same sequence listed as MOE 5-10-5 gapmer and as uniform MOE, further chemistry not given here) [ISIS 328694]
apoptosis in T47D cells: prevent or have a protective effect from apoptosis

CCGAGGGTCTAACCCAGCCC (antisense; same sequence listed as MOE 5-10-5 gapmer and as uniform MOE, further chemistry not given here) [ISIS 328638]
apoptosis in T47D cells: prevent or have a protective effect from apoptosis

CTCTAGCTCCCTCACCAGTG (antisense; same sequence listed as MOE 5-10-5 gapmer and as uniform MOE, further chemistry not given here) [ISIS 328696]
apoptosis in T47D cells: induce apoptosis

GACAAGGTGGGAGCGAGTGG (antisense; same sequence listed as MOE 5-10-5 gapmer and as uniform MOE, further chemistry not given here) [ISIS 328644]
apoptosis in T47D cells: prevent or have a protective effect from apoptosis

GACTACTGTTGAGAGGAACA (antisense; same sequence listed as MOE 5-10-5 gapmer and as uniform MOE, further chemistry not given here) [ISIS 328639]
apoptosis in T47D cells: prevent or have a protective effect from apoptosis

GCCTCCTTCATATATTCTCA (antisense; same sequence listed as MOE 5-10-5 gapmer and as uniform MOE, further chemistry not given here) [ISIS 328690]
apoptosis in T47D cells: prevent or have a protective effect from apoptosis

GCTTTTAGAACCACTGCCTC (antisense; same sequence listed as MOE 5-10-5 gapmer and as uniform MOE, further chemistry not given here) [ISIS 328646]
apoptosis in T47D cells: induce apoptosis

GGATTTAAACGGTAAACATC (antisense; same sequence listed as MOE 5-10-5 gapmer and as uniform MOE, further chemistry not given here) [ISIS 328695]
apoptosis in T47D cells: prevent or have a protective effect from apoptosis

GGCCTAATATCCCTACCCCA (antisense; same sequence listed as MOE 5-10-5 gapmer and as uniform MOE, further chemistry not given here) [ISIS 328652]
apoptosis in T47D cells: induce apoptosis

GTGTTCAGAAACCCAGGCCC (antisense; same sequence listed as MOE 5-10-5 gapmer and as uniform MOE, further chemistry not given here) [ISIS 328653]
apoptosis in T47D cells: induce apoptosis

ISIS 328371: 5-10-5 2′-MOE gapmer PS; targets mir-1d pri-miRNA (eT*e[5mC]*e[5mC]*eA*eT*dA*dG*d[5mC]*dT*dT*dA*dG*d[5mC]*dA*dG*eG*eT*e[5mC]*e[5mC]*eA)
apoptosis in T47D cells: induce apoptosis

ISIS 328381: 5-10-5 2′-MOE gapmer PS; targets mir-214 pri-miRNA (eA*e[5mC]*eA*eG*eG*dT*dG*dA*dG*d[5mC]*dG*dG*dA*dT*dG*eT*eT*e[5mC]*eT*eG)
apoptosis in T47D cells: induce apoptosis

ISIS 328391: 5-10-5 2′-MOE gapmer PS; targets hypothetical miRNA-044 pri-miRNA (eA*eT*eG*eG*eT*dA*dA*dT*dT*dT*d[5mC]*dA*dT*dT*dT*e[5mC]*eA*eG*eG*e[5mC])
apoptosis in T47D cells: prevent or have a protective effect from apoptosis

ISIS 328397: 5-10-5 2′-MOE gapmer PS; targets mir-103-1 pri-miRNA (eT*eT*eG*eA*eT*d[5mC]*d[5mC]*dA*dT*dA*dT*dG*d[5mC]*dA*dA*e[5mC]*eA*eA*eG*eG)
apoptosis in T47D cells: induce apoptosis

SEQ ID NO 483: gapmer of Tables 9-12 having this SEQ ID NO (antisense eA*eG*e[5mC]*eT*eT*dT*dA*dG*d[5mC]*dT*dG*dG*dG*dT*d[5mC]*eA*eG*eG*eA*e[5mC])
apoptosis in T47D cells: induce apoptosis

SEQ ID NO 485: gapmer of Tables 9-12 having this SEQ ID NO (antisense eT*e[5mC]*eA*e[5mC]*eA*dA*dT*d[5mC]*d[5mC]*d[5mC]*d[5mC]*dA*d[5mC]*d[5mC]*dA*eA*eA*e[5mC]*eT*e[5mC])
apoptosis in T47D cells: prevent or have a protective effect from apoptosis

SEQ ID NO 488: gapmer of Tables 9-12 having this SEQ ID NO (antisense e[5mC]*eT*eG*eA*e[5mC]*dT*dG*dA*dG*dA*d[5mC]*dT*dG*dT*dT*e[5mC]*eA*e[5mC]*eA*eG)
apoptosis in T47D cells: induce apoptosis

SEQ ID NO 495: gapmer of Tables 9-12 having this SEQ ID NO (antisense eA*e[5mC]*e[5mC]*eT*eG*dT*dG*dT*dA*dA*d[5mC]*dA*dG*d[5mC]*d[5mC]*eG*eT*eG*eT*eA)
apoptosis in T47D cells: prevent or have a protective effect from apoptosis

SEQ ID NO 496: gapmer of Tables 9-12 having this SEQ ID NO (antisense eT*eT*eA*eT*e[5mC]*dG*dG*dA*dA*d[5mC]*dT*dT*d[5mC]*dA*d[5mC]*eA*eG*eA*eG*eA)
apoptosis in T47D cells: induce apoptosis

SEQ ID NO 498: gapmer of Tables 9-12 having this SEQ ID NO (antisense eG*eG*e[5mC]*eA*e[5mC]*dT*dT*d[5mC]*dA*dT*dT*dG*d[5mC]*dT*dG*e[5mC]*eT*eG*e[5mC]*e[5mC])
apoptosis in T47D cells: induce apoptosis

SEQ ID NO 502: gapmer of Tables 9-12 having this SEQ ID NO (antisense eG*e[5mC]*eT*eG*eG*d[5mC]*d[5mC]*dT*dG*dA*dT*dA*dG*d[5mC]*d[5mC]*e[5mC]*eT*eT*e[5mC]*eT)
apoptosis in T47D cells: induce apoptosis

SEQ ID NO 510: gapmer of Tables 9-12 having this SEQ ID NO (antisense eG*e[5mC]*e[5mC]*e[5mC]*eT*d[5mC]*dG*dA*d[5mC]*dG*dA*dA*dA*dA*d[5mC]*e[5mC]*eG*eA*e[5mC]*eT)
apoptosis in T47D cells: prevent or have a protective effect from apoptosis

SEQ ID NO 511: gapmer of Tables 9-12 having this SEQ ID NO (antisense eT*eT*eG*eA*eA*d[5mC]*dT*d[5mC]*d[5mC]*dA*dT*dG*d[5mC]*d[5mC]*dA*e[5mC]*eA*eA*eG*eG)
apoptosis in T47D cells: induce apoptosis

SEQ ID NO 516: gapmer of Tables 9-12 having this SEQ ID NO (antisense eA*eA*eT*eG*eG*dA*dG*d[5mC]*d[5mC]*dA*dA*dG*dG*dT*dG*e[5mC]*eT*eG*e[5mC]*e[5mC])
apoptosis in T47D cells: induce apoptosis

SEQ ID NO 518: gapmer of Tables 9-12 having this SEQ ID NO (antisense eG*e[5mC]*eT*eA*eG*dT*dG*dA*d[5mC]*dA*dG*dG*dT*dG*d[5mC]*eA*eG*eA*e[5mC]*eA)
apoptosis in T47D cells: prevent or have a protective effect from apoptosis

SEQ ID NO 519: gapmer of Tables 9-12 having this SEQ ID NO (antisense eG*eG*eG*e[5mC]*e[5mC]*dT*dA*dT*d[5mC]*d[5mC]*dA*dA*dA*dG*dT*eG*eA*e[5mC]*eA*eG)
apoptosis in T47D cells: induce apoptosis

SEQ ID NO 520: gapmer of Tables 9-12 having this SEQ ID NO (antisense eT*eA*e[5mC]*e[5mC]*eT*d[5mC]*dT*dG*d[5mC]*dA*dG*dT*dA*dT*dT*e[5mC]*eT*eA*e[5mC]*eA)
apoptosis in T47D cells: prevent or have a protective effect from apoptosis

SEQ ID NO 521: gapmer of Tables 9-12 having this SEQ ID NO (antisense eT*eT*eT*eA*e[5mC]*dT*d[5mC]*dA*dT*dA*d[5mC]*d[5mC]*dT*d[5mC]*dG*e[5mC]*eA*eA*e[5mC]*e[5mC])
apoptosis in T47D cells: induce apoptosis

SEQ ID NO 522: gapmer of Tables 9-12 having this SEQ ID NO (antisense eA*eA*eT*eT*eG*dT*dA*dT*dG*dA*d[5mC]*dA*dT*dT*dA*eA*eA*eT*e[5mC]*eA)
apoptosis in T47D cells: prevent or have a protective effect from apoptosis

SEQ ID NO 528: gapmer of Tables 9-12 having this SEQ ID NO (antisense eT*eG*eT*eT*eG*d[5mC]*d[5mC]*dT*dA*dA*d[5mC]*dG*dA*dA*d[5mC]*eA*e[5mC]*eA*eG*eA)
apoptosis in T47D cells: prevent or have a protective effect from apoptosis
